The record followed here is US20260315434A1, “USE OF GUAIACOL SESQUITERPENE LACTONE DERIVATIVES” (NANJING UNIVERSITY OF CHINESE MEDICINE, priority 2023, published 2026).

Assay [1] deals with Hepa1-6 cells. The assay is described as follows: Antitumor effect in Hepa1-6 mouse hepatocellular carcinoma subcutaneous xenograft model. The class given is in vivo, C57BL/6 mice.
Assay [2] has as its system inflammatory cytokines (IL-1β, IL-6) in lung tissue. The assay can be described thus: LPS-induced acute lung injury, inflammatory cytokines by ELISA. The format is in vivo, C57BL/6 mice. The conditions noted are these: for IL-1β: LPS 2411.32; for IL-6: LPS 3520.94. How it is done: After a 7-day acclimatization period, mice were used for subsequent experiments.
The abdomen was opened, and the lungs were removed. They were rinsed twice with pre-chilled PBS. […] The remaining tissue was stored at −70° C. for future use.
Data Statistics: All data are expressed as means S.E.M. Statistical differences between groups were analyzed using one-way ANOVA and t-tests in SPSS software. P values less than 0.05 were considered statistically significant.
(In general: ELISA stands for enzyme-linked immunosorbent assay.)

The subject of assay [3] is inflammatory cytokines (TNF, IL-6, IL-1) in renal tissue. The assay is described as follows: Folic acid-induced acute kidney injury, renal inflammatory factor mRNA. The class given is in vivo, C57BL/6 mice. The note with it: folic acid acute model. How it is done:
Except for the normal group, all other mice were administered folic acid (250 mg/kg) dissolved in 0.9% NaHCO3 solution via intraperitoneal injection to establish an acute kidney injury model.
(§1) The blood was allowed to stand at room temperature for 2 hours, then centrifuged at 3000 rpm for 20 minutes. Serum was aspirated, aliquoted, and stored at −70° C. for future use. Following blood collection, euthanize mice by cervical dislocation. Perform laparotomy to remove kidneys, dissect out perirenal fat and capsules. […] Paraffin-embedded specimens undergo HE staining; remaining tissue is stored at −70° C. for future use.

Assay [4] deals with renal injury markers (Ngal, Havcr1) in kidney tissue. The assay can be described thus: Unilateral ureteral ligation (UUO) chronic kidney injury, renal injury marker mRNA. The class given is in vivo, C57BL/6 mice. Details: unit not given here. The note with it: UUO chronic model.
Excerpt: Chronic Kidney Injury: Mice were randomly divided into five groups. […] Except for the sham-operated mice in the normal group (where only the left ureter was exposed without further manipulation), all other mice underwent unilateral ureteral ligation to establish a chronic kidney injury model as follows: The abdominal skin was disinfected with iodine solution followed by alcohol. An incision was made, and the abdominal layers were dissected sequentially. The left ureter was fully exposed and dissected. A double ligation was performed at the bladder-proximal end of the left ureter using absorbable suture material, followed by closure.
as §1

Assay [5] has as its system inflammatory factors (TNF, IL-6, IL-1) in renal tissue. The assay is described as follows: Lupus nephritis, renal inflammatory factor mRNA. The format is in vivo, MRL/lpr mice. The conditions noted are these: 8 weeks. As to the method:
Experimental animals: MRI/MpJ and MRL/lpr mice, female, 10 weeks old, purchased from GemPharmatech LLC. Production license number: SCXK(Su)2023-0009. […] They were acclimated for 7 days before use in experiments.
Oral administration was performed continuously for 8 weeks.
Allow blood to stand at room temperature for 2 hours, then centrifuge at 3000 rpm for 20 minutes. Aspirate the serum, aliquot it, and store at −70° C. for future use. After blood collection, euthanize mice by cervical dislocation. Open the abdominal cavity, remove kidneys, and dissect out perirenal fat and capsules. […] Store remaining tissues at −70° C. for future use.

Assay [6] deals with inflammatory factors (MCP-1, TNF-α) in renal tissue. The assay can be described thus: Diabetic nephropathy, renal inflammatory factor mRNA. The class given is in vivo, C57/BL6J mice. Details: Mcp-1 mRNA expression, kidney / Tnf-α mRNA expression, kidney / IL-6 mRNA expression, kidney: unit not given here. The note with it: 8 weeks. How it is done:
Experimental animals: C57/BL6J mice, male, 12 weeks old, purchased from GemPharmatech LLC. Production license number: SCXK(Su)2023-0009. […] Animals were acclimated for 7 days before use in experiments.
Administer streptozotocin (STZ, 50 mg/kg) via intraperitoneal injection for 5 consecutive days. After 72 hours, select mice with fasting blood glucose levels exceeding 16.7 mmol/L as model mice. […] Model mice were fed a high-fat diet (HFD) providing 60% of energy from fat for 8 weeks. After 8 weeks, gavage administration commenced.
Specimen Collection: One hour after the last drug administration, enucleate the eyeball to collect blood. Allow blood to stand at room temperature for 2 hours, then centrifuge at 3000 rpm for 20 minutes. Aspirate the serum, aliquot it, and store at −70° C. for future use. After blood collection, euthanize the mice by cervical dislocation. Open the abdominal cavity, remove the kidneys, and dissect away the perirenal fat and capsule. Store the tissue at −70° C. for future use.

Assay [7] has as its system Hepa1-6 cells. The assay is described as follows: Antitumor efficacy combined with anti-PD-L1 monoclonal antibody, Hepa1-6 xenograft. The class given is in vivo, C57BL/6 mice. The note with it: for combination with anti-PD-L1 monoclonal antibody vs. single agents, Hepa1-6: 1 mg/kg/day i.p., 2 weeks, result in words. How it is done:
Hepa1-6 cells were cultured and expanded in vitro. An appropriate number of cells in the logarithmic growth phase was resuspended in a mixture of serum-free DMEM medium and Matrigel (1:1). Under sterile conditions, prepare a cell suspension at 2.5×10^6 cells/100 μL. Using a syringe, inject 100 μL of the cell suspension subcutaneously into the left forelimb axilla of male C57BL/6 mice. […] Compounds 20 and 103 were administered via intraperitoneal injection daily, while anti-PD-L1 monoclonal antibody was administered intraperitoneally every three days for a total of two weeks. During the treatment period, mouse body weight and tumor diameter were measured daily. At the end of the experiment, mice were euthanized by cervical dislocation, and tumors were removed and weighed. Tumor volume (TV) was calculated using the formula: TV=½×a×b^2, where a represents the longest diameter of the tumor and b represents the shortest diameter.

The mark [8] stands for this setting: 40 μmol/kg/d oral, 2 weeks, solvent 0.92 ± 1.41.
[9] abbreviates: dose 1 (head μmol/kg/day; text 1 mg/kg/day), i.p. daily, two weeks, Hepa1-6.

Marks after values point to notes of the source that are not given here.

`C=C1C(=O)O[C@@H]2[C@H]3C(C)=CC[C@@]34O[C@@]4(C)CC[C@@H]12` [Arg, Arglabin, reference compound]: the “Tumor weight” value in assay [1] (mouse, in vivo, po) is given as 0.04 ± 0.03 g.
Turning to `CN(C)C[C@@H]1C(=O)O[C@H]2[C@H]1CC[C@@]1(C)C[C@]13CC[C@@](C)(O)[C@H]23` [Compound 20], in assay [2] (0.1 mg/kg), the IL-1β was 1570.02 ± 62.95 pg/mL and the IL-6 worked out at 2348.32 ± 202.75 pg/mL. In assay [2] (1 mg/kg), the IL-1β turned out to be 708.74 ± 38.40 pg/mL and the IL-6 is on record as 1172.00 ± 240.50 pg/mL. Also, in assay [3] (1 mg/kg oral, 1 mg/kg), the “Il1 mRNA expression, kidney” value was determined as 1.06 ± 0.33; the “Il6 mRNA expression, kidney” value is recorded as 1.55 ± 0.28; the “Tnf mRNA expression, kidney” value is recorded as 2.31 ± 0.72. In assay [4] (1 mg/kg oral, 1 mg/kg), the “Havcr1 mRNA expression, kidney” value was 6.29 ± 2.43 and the “Ngal mRNA expression, kidney” value is reported as 16.14 ± 2.74. In assay [5] (30 mg/kg oral), the “Il1 mRNA expression, kidney” value was 6.01 ± 0.99; the “Il6 mRNA expression, kidney” value worked out at 11.80 ± 1.90; the “Tnf mRNA expression, kidney” value is 4.04 ± 0.33. In assay [6] (1 mg/kg gavage), the “Mcp-1 mRNA expression, kidney” value was 2.33 ± 0.20 and the “Tnf-α mRNA expression, kidney” value is 1.38 ± 0.17. Also, in assay [6] (10 mg/kg gavage), the “Mcp-1 mRNA expression, kidney” value is listed as 1.40 ± 0.22 and the “Tnf-α mRNA expression, kidney” value came to 0.96 ± 0.13. In addition, in assay [7] (1 mg/kg/d i.p. combined with anti-PD-L1 monoclonal antibody (5 mg/kg/d)), the “tumor inhibition rate, combination” value came to 96.99%. In addition, the “combination with anti-PD-L1 monoclonal antibody vs. single agents, Hepa1-6” value in assay [7] was “synergistic effect”.
In the case of `CN(C)C[C@@H]1C(=O)O[C@H]2[C@H]1CC[C@@]1(C)C[C@]13CC[C@@](C)(O)[C@H]23` [Compound 21], in assay [2] (0.1 mg/kg), the IL-1β was 1623.55 ± 32.64 pg/mL and the IL-6 amounted to 2585.26 ± 273.50 pg/mL. In assay [2] (1 mg/kg), this molecule registered an IL-1β of 888.28 ± 35.20 pg/mL and an IL-6 of 1288.32 ± 123.80 pg/mL. In addition, in assay [3] (0.1 mg/kg oral), the “Il1 mRNA expression, kidney” value was found to be 2.07 ± 0.38; the “Il6 mRNA expression, kidney” value turned out to be 6.47 ± 0.53; the “Tnf mRNA expression, kidney” value is 2.60 ± 0.62. In assay [3] (1 mg/kg oral, 1 mg/kg), the “Il1 mRNA expression, kidney” value is listed as 1.45 ± 0.23; the “Il6 mRNA expression, kidney” value was found to be 5.61 ± 2.10; the “Tnf mRNA expression, kidney” value was found to be 2.42 ± 0.35. In addition, in assay [4] (0.1 mg/kg oral), the “Havcr1 mRNA expression, kidney” value was found to be 11.90 ± 4.52 and the “Ngal mRNA expression, kidney” value worked out at 35.77 ± 7.67. In addition, in assay [4] (1 mg/kg oral, 1 mg/kg), the “Havcr1 mRNA expression, kidney” value is 7.25 ± 0.80 and the “Ngal mRNA expression, kidney” value was determined as 19.42 ± 1.55.
For the molecule `CC1=C2CC[C@@](C)(OC(=O)N3CCCCC3)[C@@H]2[C@H]2OC(=O)[C@@H](CN(C)C)[C@@H]2CC1` [Compound 102], in assay [1] (40 μmol/kg/d oral, 2 weeks), the “Tumor Inhibition Rate” value came out at 96.67%. Further, the “Tumor weight” value in assay [1] (setting [8]) is reported as 0.03 ± 0.04 g.
Regarding `CC1=C2CC[C@@](C)(OC(=O)N3CCCC3)[C@@H]2[C@H]2OC(=O)[C@@H](CN3CCCC3)[C@@H]2CC1` [Compound 103], the “Il1 mRNA expression, kidney” value in assay [3] (0.1 mg/kg oral) is listed as 2.83 ± 1.00; in assay [3] (1 mg/kg oral), 2.79 ± 1.31; in assay [3] (10 mg/kg oral), 1.65 ± 1.00; in assay [5] (10 mg/kg, oral) it was 6.78 ± 0.96; in assay [5] (30 mg/kg oral) it was 4.11 ± 0.41. In addition, the “Il6 mRNA expression, kidney” value is given as 27.33 ± 11.81 in assay [3] (0.1 mg/kg oral); 23.47 ± 6.54 in assay [3] (1 mg/kg oral); 17.94 ± 9.61 in assay [3] (10 mg/kg oral); 2.47 ± 0.53 in assay [5] (10 mg/kg, oral); 1.83 ± 0.91 in assay [5] (30 mg/kg oral). Further, the figures for the “Havcr1 mRNA expression, kidney” value in assay [4] (0.1 mg/kg oral), in assay [4] (1 mg/kg oral) and in assay [4] (10 mg/kg oral) were 117.81 ± 37.55, 88.33 ± 33.24 and 93.99 ± 49.52, respectively. Besides, the figures for the “Ngal mRNA expression, kidney” value in assay [4] (0.1 mg/kg oral), in assay [4] (1 mg/kg oral) and in assay [4] (10 mg/kg oral) were 145.28 ± 50.31, 118.82 ± 38.60 and 104.98 ± 18.55, respectively. In addition, the “Tnf mRNA expression, kidney” value was 7.24 ± 3.10 in assay [5] (10 mg/kg, oral) and 4.10 ± 0.67 in assay [5] (30 mg/kg oral). Also, the “IL-1 β mRNA expression, kidney” value in assay [6] (1 mg/kg gavage) was 1.00 ± 0.25 ^; in assay [6] (10 mg/kg gavage), 0.96 ± 0.18**^. For the same molecule, the “IL-6 mRNA expression, kidney” value was determined as 4.47 ± 1.06 in assay [6] (1 mg/kg gavage) and 3.97 ± 0.94 in assay [6] (10 mg/kg gavage). Moreover, the “Mcp-1 mRNA expression, kidney” value in assay [6] (1 mg/kg gavage) is 6.78 ± 1.70; in assay [6] (10 mg/kg gavage) it was 5.67 ± 2.31. In addition, the figures for the “Tnf-α mRNA expression, kidney” value in assay [6] (1 mg/kg gavage) and in assay [6] (10 mg/kg gavage) were 3.14 ± 0.57 and 2.15 ± 0.13, respectively. Moreover, in assay [1] (40 μmol/kg/d oral, 2 weeks), the “Tumor Inhibition Rate” value was found to be 96.22%. Moreover, the “Tumor weight” value in assay [1] (setting [8]) stood at 0.03 ± 0.06 g; in assay [7] (setting [9]), 0.16 ± 0.05 g. In addition, the “combination with anti-PD-L1 monoclonal antibody vs. single agents, Hepa1-6” value in assay [7] is given as “synergistic effect”. In addition, in assay [7] (setting [9]), the “Tumor inhibition rate (%)” value is 62.26%.
